Columns and labels:
IDO1 [1] = target: T1, IDO1 (Homo sapiens, UniProt P14902); assay: IDO1 Human Whole Blood Assay; format: cell-based; conditions: LPS and IFNγ 100 ng/mL, overnight (18 h), kynurenine by LC/MS/MS
Method: IDO1 Human Whole Blood Assay
Compounds to be tested were serially diluted in ten 3-fold steps in DMSO starting from 10 mM. 3 μL of compound dilutions or DMSO alone were then dispensed from the dilution plate into a polypropylene 96-well assay plate containing 97 μL of RPMI medium using an Echo 555 acoustic liquid handler (Labcyte). LPS and IFNγ was prepared in RPMI medium to a 10× of final conc. (1000 ng/mL), final concentration is 100 ng/mL.
240 μL of blood was transferred to each of the wells of a v-bottom 96 well plate. 30 μL of compound was transferred from intermediate dilution plate, and incubated for 15 min. 30 μL from stimulants was then transferred to blood and mixed thoroughly. Plate was covered with breathable membrane and incubated at 37° C. for overnight (18 h).
On day 2, isotope labeled standard solutions of kynurenine and tryptophan was made in water at 10× concentration and 30 μL was added to the blood at 3 μM final concentration. The assay plates were centrifuged at 300×G for 10 min with no brake to separate plasma from red blood cells. 60 μL of plasma samples was removed without disturbing red blood cells. Plasma was diluted with RPMI in 1:1 ratio and proteins were precipitated out with two volumes of Acetonitrile. The plates were centrifuged at 4000×G for 60 min. 20 μL of supernatant was carefully transferred to a 384 well plate containing 40 μL of 0.1% formic acid in water and analyzed by LC/MS/MS.
LC/MS/MS analyses were performed using Thermo Fisher's LX4-TSQ Quantum Ultra system. This system consists of four Agilent binary high-performance liquid chromatography (HPLC) pumps and a TSQ Quantum Ultra triple quadrupole MS/MS instrument. For each sample, 5 μL were injected onto an Atlantis T3 column (2.1 mm×150 mm, 3 μm particle size) from Waters. The mobile phase gradient pumped at 0.8 mL/min was used to elute the analytes from the column at 25° C. The elution started at 0% B increasing linearly to 25% B at 6.5 min, holding at 25% for 1 min, re-equilibrating to 10 min. Mobile phase A consisted of 0.1% formic acid in water. Mobile phase B consisted of 0.1% of formic acid in acetonitrile. Data were acquired in positive mode using a HESI interface. The operational parameters for the TSQ Quantum Ultra instrument were a spray voltage of 4000 V, capillary temperature of 380° C., vaporizer temperature 400° C., shealth gas 60 arbitrary units, Aux gas 20 arbitrary units, tube lens 85 and collision gas 1.2 mTorr. SRM chromatograms of kynurenine (Q1: 209.2>Q3:94.0) and internal standard (Q1: 215.3>Q3:98.2) were collected for 90 sec. The peak area was integrated by Xcalibur Quan software. The ratios between the kynurenine generated in the reaction and 2D6-Kynurenine spiked-in internal standard were used to generate percentage inhibition and IC50 values. Compounds were titrated and IC50's were calculated by 4 parameter sigmoidal curve fitting formula.

IDO1 [2] = target: T1, IDO1; assay: IDO1 Cellular Assay in HeLa Cells Stimulated with IFNγ; format: cell-based; set-up: endogenous in cells; host or cells: HeLa cells stimulated with IFNγ; conditions: HeLa cells stimulated with IFNγ 100 ng/mL, 300 uM L-tryptophan, about 48 hours, fluorescence readout; read-out: IDO1 HELA Cell Assay, IC50
Method: Biological Assays IDO1 Cellular Assay in HeLa Cells Stimulated with IFNγ HeLa cells were cultured in complete HeLa culture medium (90% EMEM, 10% heat-inactivated fetal bovine serum) and expanded to about 1×10^9 cells. The cells were then collected and frozen down at 1×10^7 cells/vial in 1 mL frozen medium (90% complete HeLa culture medium, 10% DMSO). Compounds to be tested were serially diluted in ten 3-fold steps in DMSO starting from 10 mM DMSO stocks in Echo low volume plate(s). Compound dilutions or DMSO alone were then dispensed from the dilution plate(s) into Greiner black 384-well assay plate(s) (catalog #781086, 50 nL/well) using an Echo 550 acoustic liquid handler (Labcyte). Frozen HeLa cells were thawed and transferred into HeLa assay medium (99% complete HeLa culture medium, 1% Pen/Strep) with 20 mL medium/vial of cells. The cells were spun down at 250 g in a table top centrifuge for 5 min and suspended in same volume of HeLa assay medium. The cells were then counted and adjusted to a density of 2×10^5 cells/mL in HeLa assay medium. Sterile L-tryptophan were added to the cells with final concentration of 300 uM L-tryptophan. A small aliquot (2 mL/plate) of HeLa cells were set aside and were not treated with IFNγ, to serve as the Max-E control. The rest of HeLa cells were added with sterile IFNγ (Cat #285-IF, R & D systems) with a final concentration of 100 ng/mL. HeLa cells with and without IFNγ were dispensed to the respective wells of 384-well assay plates containing the compounds. The plates were incubated for about 48 hours at a 37° C., 5% CO2 incubator. Afterwards, 12 μL of 0.5 M methyl isonipecotate in dimethyl sulfoxide were added into each well and the plates were sealed and incubated at 37° C. without CO2 overnight. The plates were centrifuged for 1 min at 200×g. The resulting fluorescence was measured in a Spectramax plate reader (Molecular Devices) with a 400 nm excitation filter and a 510 nm emission filter. The fluorescence intensity of each well was corrected for the background observed in wells with non-IFNγ-treated cells and was expressed as a fraction of the intensity observed in wells of IFNγ-treated cells and DMSO only. Potencies were calculated by […] least squares fit to the four parameter logistic IC50 equation.

T1 sequence (P14902 whole entry): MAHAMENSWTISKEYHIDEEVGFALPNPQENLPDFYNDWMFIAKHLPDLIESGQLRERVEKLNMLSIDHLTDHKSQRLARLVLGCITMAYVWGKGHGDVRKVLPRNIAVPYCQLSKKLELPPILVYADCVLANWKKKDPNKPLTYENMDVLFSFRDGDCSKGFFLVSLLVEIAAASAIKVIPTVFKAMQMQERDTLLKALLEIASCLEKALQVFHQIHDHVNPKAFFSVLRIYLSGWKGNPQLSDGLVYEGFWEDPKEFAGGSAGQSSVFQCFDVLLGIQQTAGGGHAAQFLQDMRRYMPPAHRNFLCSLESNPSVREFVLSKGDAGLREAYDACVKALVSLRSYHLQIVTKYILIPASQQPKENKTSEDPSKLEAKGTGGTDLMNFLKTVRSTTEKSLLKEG

Compound	IC50 (IDO1 [1]) [nM]	IC50 (IDO1 [2]) [nM]
CCC(NC(=O)c1ccc(F)cc1)c1ccc2c(n1)C1CC1CN2C(=O)OC1CC1 (single isomer, unassigned) [Example 37, cyclopropyl 2-(1-(4-fluorobenzamido)propyl)-6,6a,7,7a-tetrahydro-5H-cyclopropa[c][1,5]naphthyridine-5-carboxylate]	54	2.83
O=C(NC1(c2ccc3c(n2)C2CC2CN3c2ccnc(C3CC3)n2)CC1)c1ccc(F)cc1 (stereo not shown) [Example 16, N-(1-(5-(2-cyclopropyl-pyrimidin-4-yl)-6,6a,7,7a-tetrahydro-5H-cyclo-propa[c][1,5]naphthyridin-2-yl)cyclopropyl)-4-fluorobenzamide]	32	2.6
CC(C)(O)c1nccc(N2CC3CC3c3nc(C4(NC(=O)c5ccc(F)cc5)CC4)ccc32)n1 (stereo not shown) [Example 18, 4-fluoro-N-(1-(5-(2-(2-hydroxypropan-2-yl)pyrimidin-4-yl)-6,6a,7,7a-tetrahydro-5H-cyclopropa[c][1,5]naphthyridin-2-yl)cyclopropyl)benzamide]	248	12
CC(C)(NC(=O)c1ccc(F)cc1)c1ccc2c(n1)C1CC1CN2C(=O)C(F)(F)F (stereo not shown) [Example 35, 2-(2-(4-fluorobenzamido)propan-2-yl)-5-(2,2,2-trifluoroacetyl)-6,6a,7,7a-tetrahydro-5H-cyclopropa[c][1,5]naphthyridin-1-ium]	778	1300
O=C(NC1(c2ccc3c(n2)C2CC2CN3c2ccnc(C3CC3)n2)CC1)c1ccc(F)cc1 (stereo not shown) [Example 15, N-(1-(5-(2-cyclopropyl-pyrimidin-4-yl)-6,6a,7,7a-tetrahydro-5H-cyclo-propa[c][1,5]naphthyridin-2-yl)cyclopropyl)-4-fluorobenzamide]	50	4.4
CC(C)(NC(=O)c1ccc(F)cc1)c1ccc2c(n1)[C@@H]1C[C@@H]1CN2C(=O)OC1CC1 (single isomer, unassigned) [Example 33]	465	4.05
4-fluoro-N-(2-((6aS,7aR)-5-(2-methylpyrimidin-4-yl)-6,6a,7,7a-tetrahydro-5H-cyclopropa[c][1,5]naphthyridin-2-yl)propan-2-yl)benzamide [Example 30]	126	6.6
C[C@@H](NC(=O)c1ccc(F)cc1)c1ccc2c(n1)[C@@H]1C[C@@H]1CN2C(=O)OC1CC1 [Example 27, cyclopropyl (6aS,7aR)-2-((R)-1-(4-fluorobenzamido)-ethyl)-6,6a,7,7a-tetrahydro-5H-cyclopropa[c][1,5]-naphthyridine-5-carboxylate]	463	3.23
O=C(NC1(c2ccc3c(n2)C2CC2CN3c2ccnc(CO)n2)CC1)c1ccc(F)cc1 (stereo not shown) [Example 19, 4-fluoro-N-(1-(5-(2-(hydroxymethyl)pyrimidin-4-yl)-6,6a,7,7a-tetrahydro-5H-cyclopropa[c][1,5]naphthyridin-2-yl)cyclopropyl)benzamide]	151	11
O=C(C1CC1)N1CC2CC2c2cc(C3(C(=O)Nc4ccc(F)cc4)CCC3)ccc21 (single isomer, unassigned) [Example 4, 1-(3-(cyclopropanecarbonyl)-1a,2,3,7b-tetrahydro-1H-cyclopropa[c]quinolin-6-yl)-N-(4-fluorophenyl)cyclobutanecarboxamide]	37	2.92
CCc1nccc(N2CC3CC3c3nc(C4(NC(=O)c5ccc(F)cc5)CC4)ccc32)n1 (stereo not shown) [Example 14, N-(1-(5-(2-ethylpyrimidin-4-yl)-6,6a,7,7a-tetrahydro-5H-cyclopropa[c][1,5]-naphthyridin-2-yl)cyclo-propyl)-4-fluorobenzamide]	105	3.5

From patent publication US12065438B2, “Substituted tricyclic compounds as indoleamine 2,3-dioxygenase inhibitors” (Merck Sharp & Dohme LLC, priority 2019, dated 2024)
